How the values were obtained:
[1] = system: MC903-induced persistent itch behavior of mice; assay: MC903 model of persistent itch (skin inflammation); assay type: in vivo; details: i.p. at day 8, vs vehicle
Protocol: Similarly, the effect of Compound 6 was also examined in the MC903 model of skin inflammation, which has some characteristics of allergic contact dermatitis and atopic dermatitis^32.
The fur on the dorsolateral aspect of the neck was shaved under brief isoflurane anesthesia. Five days thereafter, 20 μL MC903 (0.2 mM; Calcipotriol, Tocris) solved in absolute ethanol was applied to the skin at the back of the neck in brief anesthesia for 7 consecutive days. On day 8, mice were habituated for 30 min in separate plexiglass cylinders (30 cm diameter). Compounds or vehicle (10% 2-hydroxypropyl-β-cyclodextrine in 0.9% saline) were i.p. administered, and 15 min thereafter spontaneous scratching was recorded over 30 min by videotaping (FIG. 10D). […] These findings are important, because they indicate that Slack activators can ameliorate pruritus that has already established.

[2] = target: T1, short form of dopamine receptor D2 (D2S) (Homo sapiens, UniProt P14416); assay: SafetyScreen44 binding; details: 10 μM; substantial = higher than 50%
T1 construct: Eurofins SafetyScreen44
T1 sequence (P14416 1-414 isoform P14416-2): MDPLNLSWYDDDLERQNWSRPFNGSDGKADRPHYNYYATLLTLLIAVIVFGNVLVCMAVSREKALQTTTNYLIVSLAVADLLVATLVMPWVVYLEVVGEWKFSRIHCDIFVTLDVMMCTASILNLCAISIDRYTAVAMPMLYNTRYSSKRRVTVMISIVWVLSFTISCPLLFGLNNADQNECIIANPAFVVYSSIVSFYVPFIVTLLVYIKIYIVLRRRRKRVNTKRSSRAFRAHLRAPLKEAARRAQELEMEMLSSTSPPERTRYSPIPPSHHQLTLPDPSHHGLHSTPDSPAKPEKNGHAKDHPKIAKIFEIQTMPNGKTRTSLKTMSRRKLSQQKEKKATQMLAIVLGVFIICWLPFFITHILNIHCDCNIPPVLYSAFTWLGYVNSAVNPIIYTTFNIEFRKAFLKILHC
Protocol: (§1) Compound enzyme inhibition effect was calculated as a % inhibition of control enzyme activity. […] Measurements were performed in duplicate.

[3] = system: DNFB-induced persistent itch behavior of mice; assay: DNFB model of persistent itch (allergic contact dermatitis); assay type: in vivo; details: i.p. after the second DNFB exposure, vs vehicle
Protocol: Furthermore, the effect of Compound 6 in chronic itch was examined in a model of allergic contact dermatitis^31. In brief, the fur on the dorsolateral aspect of the neck was shaved under brief isoflurane anesthesia. Three to four days thereafter, the shaved skin area was painted with 100 μL of 0.15% 2,4-dinitrofluorobenzene (DNFB) in acetone/olive oil (3:1). After 10-11 days, the skin was shaved again and the DNFB solution was painted 3-4 days thereafter (i.e., two painting sessions 14 days apart). Ninety minutes after the second painting, mice were habituated for 15 min in separate plexiglass cylinders (30 cm diameter).
Compounds or vehicle (10% 2-hydroxypropyl-β-cyclodextrine in 0.9% saline) were i.p. administered, and 15 min thereafter spontaneous scratching was recorded over 30 min by videotaping (FIG. 10A).

[4] = system: CFA-induced paw hypersensitivity of mice; assay: CFA-induced inflammatory pain model; assay type: in vivo; details: 10 mg/kg i.p. 24 h after CFA; 0.5 h and 1 h after administration
Protocol: Animals: Experiments were performed in 8-16 week-old C57BL/6N mice (Charles River, Sulzfeld, Germany) of either sex. The animals were housed under a 12 h light/dark cycle with access to food and water ad libitum. All experiments adhered to the Animal Research: Reporting on In Vivo Experiments (ARRIVE) guidelines and were approved by and conducted in accordance with the regulations of the local Animal Welfare authorities (Regierungspräsidium Darmstadt, Germany; approval number V54-19c20/15-FR/2011). All behavioral studies were conducted during the light cycle of the day at room temperature (20-24° C.) by an observer blinded for the treatment of the animals and/or their genotype.
Behavioral assessment: Mechanical sensitivity of a hindpaw was assessed using a dynamic plantar aesthesiometer (Ugo Basile, Comerio, VA, Italy). Animals were placed on a wire mesh grid and habituated to the apparatus chamber for 1 h. […] The paw withdrawal latency was recorded automatically and calculated as the average of 6-8 measurements. […] Mechanical sensitivity was again determined 24 h after the CFA injection. Immediately thereafter, drug or vehicle (10% cyclodextrine in 0.9% NaCl) were intraperitoneally administered and the mechanical sensitivity was determined over 3 h. […]

[5] = system: histamine-induced scratching of mice; assay: Histamine-induced acute itch model; assay type: in vivo; details: i.p.
Protocol: Further studies were conducted to assess the in vivo efficacy of Compound 6 and Compound 10 in mice. In detail, experiments were performed in 8 to 16 weeks old C57BL/6N mice (Charles River, Sulzfeld, Germany) and animals with a genetic deletion of Slack (Slack^−/− mice^27) of either sex. Animals were housed on a 12 h light/dark cycle with access to food and water ad libitum. All experiments adhered to the guidelines of the International Association for the Study of Pain and to the ARRIVE (Animal Research: Reporting on In Vivo Experiments) guidelines, and were approved by and conducted in accordance with the regulations of the local Animal Welfare authorities (Regierungspräsidium Darmstadt, Germany). All behavioral studies were conducted during the light cycle of the day at room temperature (20-24° C.) by an observer blinded for the treatment of the animals and/or their genotype.
Acute itch behavior of the mice was monitored using a histamine-based, chloroquine-based and SLIGRL-based acute itch behavior model. In these models, three to four days before the experiment day, the fur on the dorsolateral aspect of the neck was shaved under brief isoflurane anesthesia. On the testing day, mice were habituated for 30 min in separate plexiglass cylinders (30 cm diameter). […] Numbers of scratching bouts directed to the nape of the neck were assessed over 30 min by videotaping.

[6] = target: T2, cannabinoid receptor 1 (CB1) (Homo sapiens, UniProt P21554); assay: SafetyScreen44 binding; details: 10 μM; substantial = higher than 50%
T2 construct: Eurofins SafetyScreen44
T2 sequence (P21554 whole entry): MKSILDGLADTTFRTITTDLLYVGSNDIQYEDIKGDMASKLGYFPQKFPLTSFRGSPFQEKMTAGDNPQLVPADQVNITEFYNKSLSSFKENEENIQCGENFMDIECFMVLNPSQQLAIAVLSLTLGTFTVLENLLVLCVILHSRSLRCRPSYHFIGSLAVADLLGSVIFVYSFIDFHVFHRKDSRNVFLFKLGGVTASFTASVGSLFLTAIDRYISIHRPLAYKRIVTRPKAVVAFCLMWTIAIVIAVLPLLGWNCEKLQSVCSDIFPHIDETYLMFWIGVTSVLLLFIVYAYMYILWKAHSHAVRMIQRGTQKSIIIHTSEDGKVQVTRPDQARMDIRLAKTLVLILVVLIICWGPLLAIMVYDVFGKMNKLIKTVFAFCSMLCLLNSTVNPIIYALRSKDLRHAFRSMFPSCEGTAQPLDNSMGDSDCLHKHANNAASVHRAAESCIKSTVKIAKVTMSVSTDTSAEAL
Protocol: as §1

[7] = target: muscarine M1 receptor (Homo sapiens, UniProt P11229); assay: SafetyScreen44 binding; details: substantial = higher than 50%
muscarine M1 receptor, sequence (P11229 whole entry): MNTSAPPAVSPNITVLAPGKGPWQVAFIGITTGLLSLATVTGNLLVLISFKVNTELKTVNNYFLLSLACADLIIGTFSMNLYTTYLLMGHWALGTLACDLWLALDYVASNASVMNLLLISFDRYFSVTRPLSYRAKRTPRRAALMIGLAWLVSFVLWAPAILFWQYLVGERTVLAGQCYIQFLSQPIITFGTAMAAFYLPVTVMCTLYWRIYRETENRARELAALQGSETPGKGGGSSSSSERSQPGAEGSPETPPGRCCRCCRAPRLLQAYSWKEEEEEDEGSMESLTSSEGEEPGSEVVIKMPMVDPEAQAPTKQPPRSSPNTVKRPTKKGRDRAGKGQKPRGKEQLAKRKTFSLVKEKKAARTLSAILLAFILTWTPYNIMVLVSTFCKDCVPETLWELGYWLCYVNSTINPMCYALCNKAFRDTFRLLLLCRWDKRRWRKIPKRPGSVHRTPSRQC

[8] = system: Na+ channel; assay: SafetyScreen44 binding; parameters: species or system rat; details: 10 μM; substantial = higher than 50%

**Q.** Which “head shaking, MC903 model” value [1] does the source give for O=C(O)COCCN1CCN(C2=Nc3ccccc3Oc3ccc(Cl)cc32)CC1 [Compound 6, 2-(2-(4-(2-Chlorodibenzo[b,f][1,4]oxazepin-11-yl)piperazin-1-yl)ethoxy) acetic acid] here?
**A.** significantly ameliorated

**Q.** And the “scratching, MC903 model” value [1]?
**A.** significantly ameliorated

**Q.** And the “binding inhibition, D2S” value [2]?
**A.** substantial binding

**Q.** And the “number of head shakes, DNFB model” value [3]?
**A.** significantly inhibited

**Q.** And the “number of scratching bouts, DNFB model” value [3]?
**A.** significantly inhibited

**Q.** And the “paw withdrawal latencies compared to vehicle-treated animals” value [4]?
**A.** significantly increased

**Q.** What about the “scratching evoked by s.c. histamine” value [5] of the same compound?
**A.** not affected

**Q.** With O=c1nc(CN2CCN(C3=Nc4ccccc4Oc4ccc(Cl)cc43)CC2)[nH][nH]1 [Compound 10, 5-((4-(2-Chlorodibenzo[b,f][1,4]oxazepin-11-yl)piperazin-1-yl)methyl)-1,2-dihydro-3H-1,2,4-triazol-3-one] as the compound, how does the “binding inhibition, CB1” value [6] read?
**A.** substantial binding inhibition

**Q.** What does the source list for CN1CCN(C2=Nc3ccccc3Oc3ccc(Cl)cc32)CC1 [Loxapine, 2-chloro-11-(4-methylpiperazin-1-yl)dibenzo[b,f][1,4]oxazepine, reference compound]?
**A.** inhibition at 10 µM [7]: > 50%; binding inhibition, Na+ channel [8]: higher than 50%

Reference: US20260258003A1, “SLACK-ACTIVATING COMPOUNDS AND THEIR MEDICAL USE” (Johann Wolfgang Goethe-Universität Frankfurt am Main, priority 2023, published 2026)
